Experimental data: ChEMBL document CHEMBL1201862, “PubChem BioAssay data set” (2004)
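Interpolation was linear, between the two tested concentrations surrounding the appropriate level; five concentrations were tested over 48 hours in 96-well plates. GI50 = concentration required for 50% inhibition of growth.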 Activity calls are given as the source filed them. Cut-off read from the data, not from the text of the source: active = GI50 up to about 1.1 µM and inactive = higher.

Legend:
Assay in all cases: NCI-60 cell line screen, 48 h
TK-10 = system: TK-10
SK-MEL-2 = system: SK-MEL-2
OVCAR-5 = system: OVCAR-5
RPMI-8226 = system: RPMI-8226
A498 = system: A498
SNB-19 = system: SNB-19
LOX IMVI = system: LOX IMVI
SF-295 = system: SF-295
UO-31 = system: UO-31
NCI-H460 = system: NCI-H460
K562 = system: K562
MOLT-4 = system: MOLT-4
HL-60 = system: HL-60
NCI-H226 = system: NCI-H226
SNB-75 = system: SNB-75
SF-539 = system: SF-539

Structure (SMILES) | GI50 (TK-10) | GI50 (SK-MEL-2) | GI50 (OVCAR-5) | GI50 (RPMI-8226) | GI50 (A498) | GI50 (SNB-19) | GI50 (LOX IMVI) | GI50 (SF-295) | GI50 (UO-31) | GI50 (NCI-H460) | GI50 (K562) | GI50 (MOLT-4) | GI50 (HL-60) | GI50 (NCI-H226) | GI50 (SNB-75) | GI50 (SF-539)
CC#Cc1c(C#CC)c(OC)c2c(c1OC)C(=O)c1ccccc1C2=O | 41.8 µM (inactive) | 38.5 µM (inactive) | > 100 µM (inactive) | 39.2 µM (inactive) | 33.1 µM (inactive) | 20.3 µM (inactive) | > 100 µM (inactive) | 13.3 µM (inactive) | 26 µM (inactive) | > 100 µM (inactive) | > 100 µM (inactive) | > 100 µM (inactive) | 33 µM (inactive) | – | – | –
O=C(Nc1cc(C(F)(F)F)ccc1Cl)C(=O)C(C(=O)c1ccc2ccccc2c1)C1OC(=O)c2ccccc21 (configuration not stated) | 20.7 µM (inactive) | 12.6 µM (inactive) | 8.95 µM (inactive) | 4.25 µM (inactive) | 6.55 µM (inactive) | 6.21 µM (inactive) | 6.32 µM (inactive) | 4.81 µM (inactive) | 12.4 µM (inactive) | 3.79 µM (inactive) | 4.66 µM (inactive) | 2.09 µM (inactive) | 11 µM (inactive) | 0.881 µM (active) | 7.41 µM (inactive) | 2.08 µM (inactive)
NNC(=S)N/N=C(/C(=O)Nc1cc(Cl)ccc1Cl)C1C(=O)Nc2ccccc2[S+]1[O-] (configuration not stated) | > 100 µM (inactive) | > 100 µM (inactive) | > 100 µM (inactive) | – | > 100 µM (inactive) | > 100 µM (inactive) | > 100 µM (inactive) | > 100 µM (inactive) | > 100 µM (inactive) | > 100 µM (inactive) | > 100 µM (inactive) | 78.9 µM (inactive) | > 100 µM (inactive) | > 100 µM (inactive) | > 100 µM (inactive) | > 100 µM (inactive)
Cc1cccc(C)c1NC(=O)CCCC(=O)C1/C(=N/NC(=O)CC#N)CCC/C1=N\NC(=O)CC#N (configuration not stated) | > 100 µM (inactive) | > 100 µM (inactive) | > 100 µM (inactive) | > 100 µM (inactive) | > 100 µM (inactive) | > 100 µM (inactive) | – | > 100 µM (inactive) | > 100 µM (inactive) | > 100 µM (inactive) | > 100 µM (inactive) | > 100 µM (inactive) | > 100 µM (inactive) | > 100 µM (inactive) | > 100 µM (inactive) | > 100 µM (inactive)
CCCCC/C=C1\CCC(CN(C)C)C1=O (configuration not stated) | > 23.4 µM (inactive) | 19.9 µM (inactive) | 18.6 µM (inactive) | 0.386 µM (active) | – | 19.5 µM (inactive) | 6.79 µM (inactive) | 20 µM (inactive) | 17 µM (inactive) | 31.5 µM (inactive) | 1.94 µM (inactive) | 1.95 µM (inactive) | 6.97 µM (inactive) | 15.5 µM (inactive) | 16.2 µM (inactive) | 10.9 µM (inactive)
CCCCCCCCCCCC(=O)OCCOCCOCCOCCOCCOC(=O)CCCCCCCCCCC | > 100 µM (inactive) | > 100 µM (inactive) | > 100 µM (inactive) | > 100 µM (inactive) | > 100 µM (inactive) | > 100 µM (inactive) | > 100 µM (inactive) | > 100 µM (inactive) | > 100 µM (inactive) | > 100 µM (inactive) | > 100 µM (inactive) | > 100 µM (inactive) | 37.6 µM (inactive) | > 100 µM (inactive) | > 100 µM (inactive) | –
CCOC(=O)Cc1csc(Nc2ccc(OCC)cc2)n1 | > 100 µM (inactive) | > 100 µM (inactive) | – | > 100 µM (inactive) | > 100 µM (inactive) | > 100 µM (inactive) | – | > 100 µM (inactive) | > 100 µM (inactive) | > 100 µM (inactive) | 92.7 µM (inactive) | 61.8 µM (inactive) | > 100 µM (inactive) | > 100 µM (inactive) | 40.4 µM (inactive) | > 100 µM (inactive)
N#CCc1nnc(N)o1 | > 100 µM (inactive) | > 100 µM (inactive) | – | > 100 µM (inactive) | – | > 100 µM (inactive) | > 100 µM (inactive) | > 100 µM (inactive) | > 100 µM (inactive) | – | > 100 µM (inactive) | > 100 µM (inactive) | > 100 µM (inactive) | > 100 µM (inactive) | > 100 µM (inactive) | > 100 µM (inactive)
Cc1c(CCl)c(=O)oc2c(C)c3occ(CCl)c(=O)c3cc12 | > 100 µM (inactive) | > 100 µM (inactive) | > 100 µM (inactive) | 8.69 µM (inactive) | > 100 µM (inactive) | 25.8 µM (inactive) | 14.9 µM (inactive) | > 100 µM (inactive) | 17.5 µM (inactive) | > 100 µM (inactive) | 6.43 µM (inactive) | 6.35 µM (inactive) | 4.72 µM (inactive) | 23.9 µM (inactive) | 17.2 µM (inactive) | 21 µM (inactive)
CCCCCCCc1cc(OC(=O)c2c(C)cc(OC)cc2O)cc(O)c1C(=O)O | 28.7 µM (inactive) | 19.1 µM (inactive) | 16.6 µM (inactive) | 22.6 µM (inactive) | 19.1 µM (inactive) | 26.4 µM (inactive) | 21.3 µM (inactive) | 19.3 µM (inactive) | 16.9 µM (inactive) | 19.3 µM (inactive) | 33.9 µM (inactive) | 27.7 µM (inactive) | 26.5 µM (inactive) | – | 19 µM (inactive) | 17.6 µM (inactive)
O=C(NCCS(=O)(=O)N1C(=O)C2CCCN2C(=O)[C@@H]1Cc1ccccc1)OCc1ccccc1 (some centres not stated) | 38.1 µM (inactive) | – | 70.3 µM (inactive) | 23.3 µM (inactive) | 25.3 µM (inactive) | 44.4 µM (inactive) | 50.6 µM (inactive) | 50 µM (inactive) | 28.2 µM (inactive) | 40.4 µM (inactive) | 47.9 µM (inactive) | 48 µM (inactive) | 24.2 µM (inactive) | 51.8 µM (inactive) | 33.3 µM (inactive) | 76.6 µM (inactive)
CN(C)CCn1c2ccccc2c2nc3cc4ccccc4cc3nc21 | 10.5 µM (inactive) | 11.1 µM (inactive) | – | 2.91 µM (inactive) | 2.34 µM (inactive) | 13.5 µM (inactive) | 3.18 µM (inactive) | 4.05 µM (inactive) | 5.07 µM (inactive) | 0.796 µM (active) | 2.92 µM (inactive) | 0.885 µM (active) | 1.86 µM (inactive) | 14 µM (inactive) | – | –
O=C1CC2C(=O)N(Cc3ccccc3)C1C=C2S(=O)(=O)c1ccccc1 (configuration not stated) | > 100 µM (inactive) | – | – | – | > 100 µM (inactive) | > 100 µM (inactive) | > 100 µM (inactive) | > 100 µM (inactive) | > 100 µM (inactive) | > 100 µM (inactive) | > 100 µM (inactive) | > 100 µM (inactive) | > 100 µM (inactive) | > 100 µM (inactive) | > 100 µM (inactive) | > 100 µM (inactive)
CN(C)c1c([O-])c(=[N+](C)C)c1=O | > 100 µM (inactive) | > 100 µM (inactive) | > 100 µM (inactive) | – | > 100 µM (inactive) | > 100 µM (inactive) | > 100 µM (inactive) | > 100 µM (inactive) | > 100 µM (inactive) | > 100 µM (inactive) | > 100 µM (inactive) | > 100 µM (inactive) | > 100 µM (inactive) | > 100 µM (inactive) | > 100 µM (inactive) | > 100 µM (inactive)
C=C1CC(c2ccc(O)c(OC)c2)Oc2c(OC)cccc21 (configuration not stated) | 99.3 µM (inactive) | – | 65.5 µM (inactive) | – | – | 44.9 µM (inactive) | – | 80.5 µM (inactive) | 60.3 µM (inactive) | 35.1 µM (inactive) | 19.7 µM (inactive) | 25.1 µM (inactive) | 13 µM (inactive) | > 100 µM (inactive) | 39.2 µM (inactive) | 21.3 µM (inactive)
CC(C)(C)OC1=C(OC(C)(C)C)C(O)(c2ccc(Cl)cc2)C1=O (configuration not stated) | > 100 µM (inactive) | – | > 100 µM (inactive) | > 100 µM (inactive) | > 100 µM (inactive) | > 100 µM (inactive) | > 100 µM (inactive) | > 100 µM (inactive) | > 100 µM (inactive) | > 100 µM (inactive) | > 100 µM (inactive) | > 100 µM (inactive) | > 100 µM (inactive) | – | 99.3 µM (inactive) | > 100 µM (inactive)
C=C1C[C@]23CCC4C(C)(C)C(=O)CC[C@]4(C)C2C[C@H]1C(O)C3=O (some centres not stated) | – | > 75 µM (inactive) | – | > 75 µM (inactive) | > 75 µM (inactive) | > 75 µM (inactive) | > 75 µM (inactive) | > 75 µM (inactive) | > 75 µM (inactive) | – | > 75 µM (inactive) | > 75 µM (inactive) | > 75 µM (inactive) | > 75 µM (inactive) | > 75 µM (inactive) | > 75 µM (inactive)
C[C@H]1CCC2C(CN3CCCCC3)C(=O)OC2[C@]2(C)C(=O)CC(N3CCCCC3)C12O (some centres not stated) | 16.6 µM (inactive) | 10.7 µM (inactive) | 10.7 µM (inactive) | 2.71 µM (inactive) | 4.12 µM (inactive) | 20 µM (inactive) | – | 9.1 µM (inactive) | 13.7 µM (inactive) | 12.8 µM (inactive) | 2.4 µM (inactive) | 2.21 µM (inactive) | 1.56 µM (inactive) | 0.083 µM (active) | 11.3 µM (inactive) | 2.26 µM (inactive)
O=C1c2ccc(O)cc2C(=O)c2ccc(O)cc21 | 61.8 µM (inactive) | 45.7 µM (inactive) | > 100 µM (inactive) | 42.8 µM (inactive) | 38.5 µM (inactive) | 78.9 µM (inactive) | 58.1 µM (inactive) | > 100 µM (inactive) | 24.3 µM (inactive) | 53.2 µM (inactive) | 50.1 µM (inactive) | 31.6 µM (inactive) | 70.5 µM (inactive) | – | 29.6 µM (inactive) | 40.9 µM (inactive)
